According to patent US11000506B2, “Envenomation therapies and related pharmaceutical compositions, systems and kits” (OPHIREX, INC, priority 2014, dated 2021):
Where a SMILES comes first, the peptide text is derived from it.

Key:
Assay type in all cases: biochemical
C. atrox venom MP = assay: HTS for inhibitors of C. Atrox venom MP; settings: compounds approximately 10 μM/well
Method: (§1) Background. Phospholipase A2 (PLA2) catalyzes the hydrolysis of phospholipids at the sn-2 position yielding a free fatty acid and a lysophospholipid. The release of arachidonic acid from membrane phospholipids by PLA is believed to be a key step in the control of eicosanoid production within the cell. The Bee Venom PLA2 Control was a 100 μg/ml solution of bee venom PLA2 is supplied as a positive control in the kit (Abcam kit catalog number ab133089). Substrate for MP was DQ Gelatin and assay run per EnzChek gelatinase assay manufacturers instructions. Venom MP activity was not optimized in initial experiments, but reaction rates were during experiments performed by an independently contracted laboratory. SP assay was performed using Nα-Benzoyl-L-arginine-7-amido-4-methylcoumarin hydrochloride. These kits were stored as specified if stored at −20° C. Unless otherwise specified, in the case of my experiments, only crude, unfractionated lyophilized venom purchased from Sigma or the Miami Serpentarium were used. Plate Setup: Manufacturers guidelines (paraphrased herein) were followed unless otherwise specified. Data Analysis: xcel per manufacturers recommendations. MP and SP assays were prepared and plated in the same manner as PLA2 assays except substrates and fluorophores were different. PBS was the buffer in the case of MP and SP assays and absorbance measured at 495 nm. Substrate for MP was DQ Gelatin and assay run per EnzChek gelatinase assay manufacturers instructions except that experiments were run, unconventionally at 37 C to estimate human body temperature and initial experiments for PLA2, MP activity and SP activity were not optimized for screening (e.g. extremely high doses of venom were used—10 mg/mL stock in all cases since the quality of the venom was unknown with final concentration of 0.444 mg/mL in the test wells). SP assay was performed using Na-Benzoyl-L-arginine-7-amido-4-methylcoumarin hydrochloride (Sigma). Specifics of contract laboratory technique vary from the present inventor's initial experiments in terms of venom and substrate optimization, plate size (384 instead of 96), volume and temperature and other factors including different operators such as those described immediately below, performed following the first pilot experiments and subsequently extended by a contract laboratory.
(§2) Small molecule screening and dose-response experiments took place in the Yale Center for Molecular Discovery. Instrumentation used when indicated included Tecan EVO (2), Tecan Aquarius, Matrix PlateMatePlus (2), Matrix PlateMate2×2 liquid transfer robots and Titertek and Thermo Multidrop liquid dispensers (7). PerkinElmer EnVision (3) and Tecan infinite M1000 (2) plate readers sensitively measure absorbance, fluorescence, fluorescence polarization and luminescence in 96- and 384-well plate formats. A GE InCell Analyzer 2200 imaging system acquires multicolor fluorescent and transmitted light images from plates. Piloting collections used in the first phases of screening were selected by the inventor or from libraries of known compounds and natural products available at the time of experiments on selected venoms including: NCC, GenPlus, Pharmakon, Bioactive lipids, Protease Inhibitors, Procured Drugs and FDA Approved Drugs libraries. The GenPlus (the NINDS Custom Collection) from MicroSource Discovery Systems contains 960 compounds. […]

bee venom PLA2 = bee venom PLA2 (Apis mellifera, UniProt P00630)
M. fulvius venom PLA2 = assay: HTS for inhibitors of M. fulvius venom PLA2; settings: compounds approximately 10 μM/well
E. carinatus venom MP = assay: HTS for inhibitors of E. carinatus venom MP; settings: compounds approximately 10 μM/well
Method: as §1, §2

[1] = test system: snake venom metalloproteinase; assay: time course of metalloproteinase activity with excess venom (FIG. 2A); settings: inhibitors 100 uM; venom 0.444 mg/mL
Method: Substrate for MP was DQ Gelatin and assay run per EnzChek gelatinase assay manufacturers instructions. Venom MP activity was not optimized in initial experiments, but reaction rates were during experiments performed by an independently contracted laboratory. SP assay was performed using Nα-Benzoyl-L-arginine-7-amido-4-methylcoumarin hydrochloride. […] Unless otherwise specified, in the case of my experiments, only crude, unfractionated lyophilized venom purchased from Sigma or the Miami Serpentarium were used. Plate Setup: Manufacturers guidelines (paraphrased herein) were followed unless otherwise specified. Data Analysis: xcel per manufacturers recommendations. MP and SP assays were prepared and plated in the same manner as PLA2 assays except substrates and fluorophores were different. PBS was the buffer in the case of MP and SP assays and absorbance measured at 495 nm. Substrate for MP was DQ Gelatin and assay run per EnzChek gelatinase assay manufacturers instructions except that experiments were run, unconventionally at 37 C to estimate human body temperature and initial experiments for PLA2, MP activity and SP activity were not optimized for screening (e.g. extremely high doses of venom were used—10 mg/mL stock in all cases since the quality of the venom was unknown with final concentration of 0.444 mg/mL in the test wells). SP assay was performed using Na-Benzoyl-L-arginine-7-amido-4-methylcoumarin hydrochloride (Sigma). Specifics of contract laboratory technique vary from the present inventor's initial experiments in terms of venom and substrate optimization, plate size (384 instead of 96), volume and temperature and other factors including different operators such as those described immediately below, performed following the first pilot experiments and subsequently extended by a contract laboratory.
Screening was carried out for inhibitors of venom sPLA2, MP and SPs. Stock solutions of venom at 10 mg/mL were used without typical dilution for assaying various inhibitors of sPLA2, MP and SPs. The final venom concentration in the assays was very high at 0.444 mg/mL.

Daboia russelli venom MP = assay: metalloproteinase activity over time, Daboia russelli venom (FIG. 2B); settings: 100 uM; venom 0.444 mg/mL
Method: Substrate for MP was DQ Gelatin and assay run per EnzChek gelatinase assay manufacturers instructions. Venom MP activity was not optimized in initial experiments, but reaction rates were during experiments performed by an independently contracted laboratory. […] These kits were stored as specified if stored at −20° C. Unless otherwise specified, in the case of my experiments, only crude, unfractionated lyophilized venom purchased from Sigma or the Miami Serpentarium were used. Plate Setup: Manufacturers guidelines (paraphrased herein) were followed unless otherwise specified. Data Analysis: xcel per manufacturers recommendations. MP and SP assays were prepared and plated in the same manner as PLA2 assays except substrates and fluorophores were different. PBS was the buffer in the case of MP and SP assays and absorbance measured at 495 nm. Substrate for MP was DQ Gelatin and assay run per EnzChek gelatinase assay manufacturers instructions except that experiments were run, unconventionally at 37 C to estimate human body temperature and initial experiments for PLA2, MP activity and SP activity were not optimized for screening (e.g. extremely high doses of venom were used—10 mg/mL stock in all cases since the quality of the venom was unknown with final concentration of 0.444 mg/mL in the test wells). […]

bee venom PLA2, sequence (P00630 34-167 limits assumed): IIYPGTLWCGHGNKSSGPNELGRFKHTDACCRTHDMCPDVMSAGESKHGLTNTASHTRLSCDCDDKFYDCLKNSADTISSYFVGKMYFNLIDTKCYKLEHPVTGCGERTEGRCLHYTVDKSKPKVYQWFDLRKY

COc1ccc(S(=O)(=O)N(Cc2cccnc2)[C@@H](C(=O)NO)C(C)C)cc1 [CGS 27023]
percental (%) reduction of MP activity (C. atrox venom MP): > 95%

CCN(CC)CCN(Cc1ccc(-c2ccc(C(F)(F)F)cc2)cc1)C(=O)Cn1c(SCc2ccc(F)cc2)nc(=O)c2c1CCC2 [darapladib]
inhibition of bee venom PLA2 (bee venom PLA2): not inhibited

Cc1ccc(C(=O)Nc2ccc(S(=O)(=O)O)c3cc(S(=O)(=O)O)cc(S(=O)(=O)O)c23)cc1NC(=O)c1cccc(NC(=O)Nc2cccc(C(=O)Nc3cc(C(=O)Nc4ccc(S(=O)(=O)O)c5cc(S(=O)(=O)O)cc(S(=O)(=O)O)c45)ccc3C)c2)c1 [Suramin]
% effect (% inhibition) on M. fulvius venom PLA2 (M. fulvius venom PLA2): 21%

COC(=O)[C@H](Cc1ccccc1)NC(=O)[C@@H](N)CC(=O)O [Aspartame] (H-Asp-Phe-OMe)
percental (%) reduction of MP activity (C. atrox venom MP): 6.31%
% Effect on E. carinatus venom MP (E. carinatus venom MP): 6%

CC(=O)N[C@@H](CS)C(=O)O [NAC, N-Acetyl Cysteine]
inhibition of metalloproteinase activity (time course) [1]: varying levels of MP inhibition

CNC(=O)[C@@H](NC(=O)[C@H](CC(C)C)[C@H](O)C(=O)NO)C(C)(C)C [marimastat]
inhibition of metalloproteinase activity (time course) [1]: most consistently showing significant inhibition
inhibition of Daboia russelli venom MP over time (Daboia russelli venom MP): comparable inhibition

NC[C@H](O)c1ccc(O)c(O)c1 [Norepinephrine]
% Effect on E. carinatus venom MP (E. carinatus venom MP): 28%

CCCCN1CCCCC1C(=O)Nc1c(C)cccc1C (centres unmarked) [bupvicaine]
% Effect on E. carinatus venom MP (E. carinatus venom MP): > 10%

Ceramide
% effect (% inhibition) on M. fulvius venom PLA2 (M. fulvius venom PLA2): 43%

CCN(CC)CC(=O)Nc1c(C)cccc1C [Lidocaine]
% effect (% inhibition) on M. fulvius venom PLA2 (M. fulvius venom PLA2): 11%

O=C(CCCCCCC(=O)Nc1ccccc1)NO [Vorinostat]
percental (%) reduction of MP activity (C. atrox venom MP): 42%

CCCCC[C@H](CC(=O)NO)C(=O)N[C@H](C(=O)N1CCC[C@H]1CO)C(C)C [Actinonin]
percental (%) reduction of MP activity (C. atrox venom MP): 92%
